In brackets after ≈: the same amount, converted by molar mass.
Key:
[1] = test system: Staphylococcus aureus; test: Antibacterial activity against Staphylococcus aureus ATCC 25923 assessed as reduction in bacterial growth incubated for 18 to 20 hrs by Mueller Hinton broth dilution method; type: functional; details: time 18-20 hrs
[2] = test system: Bacillus subtilis; test: Antibacterial activity against Bacillus subtilis ATCC 23857 assessed as reduction in bacterial growth incubated for 18 to 20 hrs by Mueller Hinton broth dilution method; type: functional; details: time 18-20 hrs
[3] = test system: Escherichia coli; test: Antibacterial activity against Escherichia coli ATCC 25922 assessed as reduction in bacterial growth incubated for 18 to 20 hrs by Mueller Hinton broth dilution method; type: functional; details: time 18-20 hrs
[4] = test system: Pseudomonas aeruginosa; test: Antibacterial activity against Pseudomonas aeruginosa ATCC 27853 assessed as reduction in bacterial growth incubated for 18 to 20 hrs by Mueller Hinton broth dilution method; type: functional; details: time 18-20 hrs
[5] = test system: Klebsiella pneumoniae; test: Antimicrobial activity against Klebsiella pneumoniae assessed as reduction in bacterial growth incubated for 18 to 20 hrs by Mueller-Hinton broth based microdilution method; type: functional; details: time 18-20 hrs
[6] = test system: Erythrocyte; test: Hemolytic activity in mouse Red blood cells incubated for 1 hr by microplate reader assay; type: toxicity, cell-based; details: erythrocyte, 1 h

Row | SMILES | MIC [1] | MIC [2] | MIC [3] | MIC [4] | MIC [5] | HC10 [6]
1 | CC[C@H](C)[C@H](NC(=O)[C@H](CCCNC(=N)N)NC(=O)[C@@H](CCCCN)NC(=O)[C@H](CC(C)C)NC(=O)[C@H](CC(C)C)NC(=O)CN)C(=O)N[C@H](CCCCN)C(=O)N[C@H](C(=O)N[C@@H](CC(C)C)C(=O)N[C@@H](CC(C)C)C(N)=O)[C@@H](C)O | > 256 µM | 64 µM (≈ 73.8 µg/mL) | 256 µM (≈ 295 µg/mL) | 64 µM (≈ 73.8 µg/mL) | 256 µM (≈ 295 µg/mL) | > 300 µM
2 | CC[C@H](C)[C@H](NC(=O)[C@H](CCCNC(=N)N)NC(=O)[C@H](CCCCN)NC(=O)[C@H](CC(C)C)NC(=O)[C@@H](CC(C)C)NC(=O)CN)C(=O)N[C@@H](CCCCN)C(=O)N[C@H](C(=O)N[C@@H](CC(C)C)C(=O)N[C@H](CC(C)C)C(N)=O)[C@@H](C)O | > 256 µM | 64 µM (≈ 73.8 µg/mL) | 128 µM (≈ 148 µg/mL) | 64 µM (≈ 73.8 µg/mL) | > 256 µM | > 300 µM
3 | CC[C@H](C)[C@H](NC(=O)[C@@H](CCCNC(=N)N)NC(=O)[C@H](CCCCN)NC(=O)[C@H](CC(C)C)NC(=O)[C@H](CC(C)C)NC(=O)CN)C(=O)N[C@@H](CCCCN)C(=O)N[C@@H](C(=O)N[C@@H](CC(C)C)C(=O)N[C@@H](CC(C)C)C(N)=O)[C@H](C)O | > 256 µM | 32 µM (≈ 36.9 µg/mL) | 256 µM (≈ 295 µg/mL) | 128 µM (≈ 148 µg/mL) | > 256 µM | > 300 µM
4 | CC[C@H](C)[C@H](NC(=O)[C@H](CCCNC(=N)N)NC(=O)[C@H](CCCCN)NC(=O)[C@@H](CC(C)C)NC(=O)[C@H](CC(C)C)NC(=O)CN)C(=O)N[C@@H](CCCCN)C(=O)N[C@H](C(=O)N[C@H](CC(C)C)C(=O)N[C@@H](CC(C)C)C(N)=O)[C@@H](C)O | > 256 µM | 16 µM (≈ 18.5 µg/mL) | 32 µM (≈ 36.9 µg/mL) | 8 µM (≈ 9.23 µg/mL) | 256 µM (≈ 295 µg/mL) | > 300 µM
5 | CC[C@H](C)[C@H](NC(=O)[C@H](CCCNC(=N)N)NC(=O)[C@@H](CCCCN)NC(=O)[C@H](CC(C)C)NC(=O)[C@H](CC(C)C)NC(=O)CN)C(=O)N[C@@H](CCCCN)C(=O)N[C@@H](C(=O)N[C@@H](CC(C)C)C(=O)N[C@@H](CC(C)C)C(N)=O)[C@H](C)O | > 256 µM | 32 µM (≈ 36.9 µg/mL) | 256 µM (≈ 295 µg/mL) | 128 µM (≈ 148 µg/mL) | > 256 µM | 
6 | CC[C@H](C)[C@H](NC(=O)[C@H](CCCNC(=N)N)NC(=O)[C@H](CCCCN)NC(=O)[C@H](CC(C)C)NC(=O)[C@H](CC(C)C)NC(=O)CN)C(=O)N[C@H](CCCCN)C(=O)N[C@@H](C(=O)N[C@@H](CC(C)C)C(=O)N[C@@H](CC(C)C)C(N)=O)[C@H](C)O | > 256 µM | 64 µM (≈ 73.8 µg/mL) | > 25 µM | 128 µM (≈ 148 µg/mL) | > 256 µM | > 300 µM
7 | CC[C@H](C)[C@H](NC(=O)[C@H](CCCNC(=N)N)NC(=O)[C@H](CCCCN)NC(=O)[C@H](CC(C)C)NC(=O)[C@H](CC(C)C)NC(=O)CN)C(=O)N[C@@H](CCCCN)C(=O)N[C@H](C(=O)N[C@H](CC(C)C)C(=O)N[C@H](CC(C)C)C(N)=O)[C@@H](C)O | 64 µM (≈ 73.8 µg/mL) | 8 µM (≈ 9.23 µg/mL) | 256 µM (≈ 295 µg/mL) | 8 µM (≈ 9.23 µg/mL) | 128 µM (≈ 148 µg/mL) | > 300 µM
8 | CC[C@H](C)[C@H](NC(=O)[C@H](CCCNC(=N)N)NC(=O)[C@H](CCCCN)NC(=O)[C@@H](CC(C)C)NC(=O)[C@H](CC(C)C)NC(=O)CN)C(=O)N[C@@H](CCCCN)C(=O)N[C@H](C(=O)N[C@H](CC(C)C)C(=O)N[C@H](CC(C)C)C(N)=O)[C@@H](C)O | 64 µM (≈ 73.8 µg/mL) | 8 µM (≈ 9.23 µg/mL) | 256 µM (≈ 295 µg/mL) | 8 µM (≈ 9.23 µg/mL) | 64 µM (≈ 73.8 µg/mL) | > 300 µM
9 | CC[C@H](C)[C@H](NC(=O)[C@@H](CCCNC(=N)N)NC(=O)[C@H](CCCCN)NC(=O)[C@H](CC(C)C)NC(=O)[C@H](CC(C)C)NC(=O)CN)C(=O)N[C@H](CCCCN)C(=O)N[C@H](C(=O)N[C@@H](CC(C)C)C(=O)N[C@@H](CC(C)C)C(N)=O)[C@@H](C)O | > 256 µM | 32 µM (≈ 36.9 µg/mL) | 256 µM (≈ 295 µg/mL) | 32 µM (≈ 36.9 µg/mL) | 256 µM (≈ 295 µg/mL) | > 300 µM

— ChEMBL document CHEMBL5608163, “Structure modification of anoplin for fighting resistant bacteria” (Eur J Med Chem, 2024)
